Test results taken from ChEMBL document CHEMBL1201862, “PubChem BioAssay data set” (2004).
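Compound exposure: 48 hours, 5 concentrations, 96-well plates. GI50: concentration for 50% inhibition of growth.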 Active and inactive are the calls of the source. Cut-off read from the data, not from the text of the source: active = GI50 up to about 1.1 µM and inactive = higher.

Key:
Test in all cases: NCI tumour cell line growth inhibition, 48 h
786-0 = system: 786-0
A498 = system: A498
A549 = system: A549
COLO 205 = system: COLO 205
EKVX = system: EKVX
K562 = system: K562
LOX IMVI = system: LOX IMVI
MOLT-4 = system: MOLT-4
NCI-H23 = system: NCI-H23
OVCAR-5 = system: OVCAR-5
RPMI-8226 = system: RPMI-8226
SF-295 = system: SF-295
SK-OV-3 = system: SK-OV-3
SNB-75 = system: SNB-75
HCT-116 = system: HCT-116
OVCAR-8 = system: OVCAR-8
SN12C = system: SN12C
UACC-257 = system: UACC-257

Structure (SMILES) | GI50 (786-0) | GI50 (A498) | GI50 (A549) | GI50 (COLO 205) | GI50 (EKVX) | GI50 (K562) | GI50 (LOX IMVI) | GI50 (MOLT-4) | GI50 (NCI-H23) | GI50 (OVCAR-5) | GI50 (RPMI-8226) | GI50 (SF-295) | GI50 (SK-OV-3) | GI50 (SNB-75) | GI50 (HCT-116) | GI50 (OVCAR-8) | GI50 (SN12C) | GI50 (UACC-257)
COc1cccc2c1NC(=O)Cc1c-2[nH]c2ccccc12 | > 100 µM (inactive) | > 100 µM (inactive) | > 100 µM (inactive) | > 100 µM (inactive) | > 100 µM (inactive) | 53.1 µM (inactive) | > 100 µM (inactive) | 13.6 µM (inactive) | 81.5 µM (inactive) | > 100 µM (inactive) | 31.2 µM (inactive) | > 100 µM (inactive) | > 100 µM (inactive) | > 100 µM (inactive) |  |  |  | 
COC(=O)C1=C(c2cc(OC)c(OC)c(OC)c2)OC(c2cc(OC)c(OC)c(OC)c2)C1 (stereo unspecified) | 24.8 µM (inactive) | 24.1 µM (inactive) | 36.5 µM (inactive) | 16.4 µM (inactive) |  | 28.8 µM (inactive) | 17.9 µM (inactive) | 22.9 µM (inactive) | 19.5 µM (inactive) | 33.3 µM (inactive) | 23.1 µM (inactive) | 20.5 µM (inactive) | 25.6 µM (inactive) | 23.7 µM (inactive) | 17 µM (inactive) | 32.1 µM (inactive) | 19.2 µM (inactive) | 23.9 µM (inactive)
C[C@]12CC[C@H](O)CC1=CC[C@@H]1C2CC[C@]2(C)C(=O)NC(=O)CC12 (stereo partly specified) | 55.5 µM (inactive) | > 100 µM (inactive) | > 100 µM (inactive) | 36.8 µM (inactive) | > 100 µM (inactive) | 29 µM (inactive) | 65.9 µM (inactive) | 30.6 µM (inactive) | > 100 µM (inactive) | > 100 µM (inactive) | 23 µM (inactive) | > 100 µM (inactive) | > 100 µM (inactive) | > 100 µM (inactive) | 53.7 µM (inactive) | 45.6 µM (inactive) | 69 µM (inactive) | > 100 µM (inactive)
CCOC(=O)CCC(=O)C1c2cccc(O)c2C(=O)c2c(O)cc(C)cc21 (stereo unspecified) | 1.32 µM (inactive) | 2.28 µM (inactive) | 0.695 µM (active) | 2 µM (inactive) | 1.82 µM (inactive) | 0.429 µM (active) | 0.729 µM (active) | 2.1 µM (inactive) | 0.962 µM (active) | 0.706 µM (active) | 1.01 µM (active) | 0.332 µM (active) | 0.865 µM (active) | 0.578 µM (active) | 0.805 µM (active) | 0.764 µM (active) | 1.79 µM (inactive) | 1.41 µM (inactive)
COc1ccc(CCNCc2cccc(OC)c2OC)cc1OC | > 100 µM (inactive) |  | > 100 µM (inactive) | > 100 µM (inactive) | > 100 µM (inactive) | > 100 µM (inactive) | > 100 µM (inactive) | > 100 µM (inactive) | > 100 µM (inactive) | > 100 µM (inactive) | > 100 µM (inactive) | > 100 µM (inactive) | > 100 µM (inactive) | > 100 µM (inactive) |  | > 100 µM (inactive) | > 100 µM (inactive) | > 100 µM (inactive)
Cc1ccc(/C=N\NC2c3cc(Cl)ccc3Nc3nc(O)nc(C)c32)cc1 (stereo unspecified) | > 100 µM (inactive) |  | > 100 µM (inactive) | 58.1 µM (inactive) | > 100 µM (inactive) | 56.5 µM (inactive) | > 100 µM (inactive) | 4.92 µM (inactive) | > 100 µM (inactive) |  | 45 µM (inactive) | > 100 µM (inactive) | > 100 µM (inactive) | > 100 µM (inactive) | 46.8 µM (inactive) | 72.6 µM (inactive) | 65.3 µM (inactive) | 88.9 µM (inactive)
[O-][Cl+3]([O-])([O-])O.c1ccc(/N=c2\nc(N3CCOCC3)ss2)cc1 | 16.4 µM (inactive) | 27.7 µM (inactive) | 33.4 µM (inactive) |  | 21 µM (inactive) | 16.5 µM (inactive) | 16 µM (inactive) | 12.3 µM (inactive) | 29.5 µM (inactive) | 28.9 µM (inactive) |  | 18.7 µM (inactive) | > 100 µM (inactive) | 19.9 µM (inactive) | 14.6 µM (inactive) | 15 µM (inactive) | 15.1 µM (inactive) | 15.8 µM (inactive)
Cc1cccc2c1c1ccc3c(c1n2C)C(=O)C=CC3=O | 1.94 µM (inactive) | 27.4 µM (inactive) | 18.9 µM (inactive) | 2.39 µM (inactive) | 18.9 µM (inactive) | 1.95 µM (inactive) | 4.94 µM (inactive) | 0.536 µM (active) | 13.5 µM (inactive) | 15.9 µM (inactive) | 2.04 µM (inactive) | 16.3 µM (inactive) | 20.1 µM (inactive) | 19.5 µM (inactive) | 5.86 µM (inactive) | 5.37 µM (inactive) | 6.17 µM (inactive) | 11.4 µM (inactive)
CC1COC(C)(C)P(=O)(c2ccccc2)C1 (stereo unspecified) | > 100 µM (inactive) | > 100 µM (inactive) | > 100 µM (inactive) | > 100 µM (inactive) | > 100 µM (inactive) | > 100 µM (inactive) | > 100 µM (inactive) | > 100 µM (inactive) | > 100 µM (inactive) | > 100 µM (inactive) | > 100 µM (inactive) | > 100 µM (inactive) | > 100 µM (inactive) | 49.4 µM (inactive) | > 100 µM (inactive) | > 100 µM (inactive) | > 100 µM (inactive) | > 100 µM (inactive)
C=C(c1ccccc1)[C@@]1(O)CCCC[C@H]1NC(c1ccccc1)c1ccccc1 | 12.7 µM (inactive) | 13.9 µM (inactive) | 11.8 µM (inactive) | 14.2 µM (inactive) | 15.3 µM (inactive) | 7.69 µM (inactive) | 9.84 µM (inactive) | 2.73 µM (inactive) | 8.3 µM (inactive) | 13.6 µM (inactive) | 3.94 µM (inactive) | 12.1 µM (inactive) | 19.1 µM (inactive) | 28.2 µM (inactive) | 7.93 µM (inactive) | 13.8 µM (inactive) | 14 µM (inactive) | 10.5 µM (inactive)
CC1(C)C=C(N2CCN(C3=CC(C)(C)NC(C)(C)C3)CC2)CC(C)(C)N1 | > 100 µM (inactive) | > 100 µM (inactive) | > 100 µM (inactive) |  | > 100 µM (inactive) | > 100 µM (inactive) | > 100 µM (inactive) | > 100 µM (inactive) | > 100 µM (inactive) | > 100 µM (inactive) | > 100 µM (inactive) | > 100 µM (inactive) | > 100 µM (inactive) | > 100 µM (inactive) | > 100 µM (inactive) | > 100 µM (inactive) | > 100 µM (inactive) | > 100 µM (inactive)
CC(=O)OCc1c2ccccc2c(C)c2c1cc(F)c1ccccc12 | 30.1 µM (inactive) | 39 µM (inactive) | 32.4 µM (inactive) | 16.2 µM (inactive) | 34.4 µM (inactive) | 21.2 µM (inactive) | 18.5 µM (inactive) | 7.74 µM (inactive) | 23.1 µM (inactive) | 42.7 µM (inactive) |  | 29.6 µM (inactive) | 52.5 µM (inactive) | 22.9 µM (inactive) | 31.3 µM (inactive) | 18.9 µM (inactive) | 15.1 µM (inactive) | > 100 µM (inactive)
CCOC(=O)/C(=C\c1ccc(OCc2ccccc2)c(OC)c1)C(=O)c1ccccc1 | 20 µM (inactive) |  | > 10 µM (inactive) | 30.8 µM (inactive) | 27.4 µM (inactive) | 19.9 µM (inactive) | 15.9 µM (inactive) | 18.3 µM (inactive) | 19.3 µM (inactive) | 20.7 µM (inactive) | 27.6 µM (inactive) | 22.3 µM (inactive) | 64.9 µM (inactive) |  | 17.5 µM (inactive) | > 10 µM (inactive) | 23 µM (inactive) | > 10 µM (inactive)
O=C1OC(Cc2ccccc2)(N2CCCC2=O)C1c1ccccc1 (stereo unspecified) | > 100 µM (inactive) | 4.95 µM (inactive) | 95.7 µM (inactive) | > 100 µM (inactive) | 48.6 µM (inactive) | 63.8 µM (inactive) |  | 43.6 µM (inactive) | 70.5 µM (inactive) | > 100 µM (inactive) | 59.4 µM (inactive) | > 100 µM (inactive) | 73.1 µM (inactive) | 30.8 µM (inactive) | 53.2 µM (inactive) | > 100 µM (inactive) | 67.5 µM (inactive) | > 100 µM (inactive)
COc1ccc(C2=C(Cl)c3cc(OC)c(OC)cc3C2)cc1OC | > 100 µM (inactive) | 34.9 µM (inactive) | > 100 µM (inactive) | > 100 µM (inactive) | > 100 µM (inactive) | > 100 µM (inactive) |  | > 100 µM (inactive) | > 100 µM (inactive) |  | > 100 µM (inactive) | > 100 µM (inactive) | > 100 µM (inactive) | > 100 µM (inactive) | > 100 µM (inactive) | > 100 µM (inactive) | > 100 µM (inactive) | > 100 µM (inactive)
CC(=O)N1CCN(c2ccc(OCC3COC(Cn4ccnc4)(c4ccc(Cl)cc4Cl)O3)cc2)CC1 (stereo unspecified) [KETOCONAZOLE] | 36 µM (inactive) | 37 µM (inactive) | 27.3 µM (inactive) | 20.1 µM (inactive) |  | 28.7 µM (inactive) | 16.9 µM (inactive) | 22.5 µM (inactive) |  | 30.3 µM (inactive) | 35.9 µM (inactive) |  | 55.8 µM (inactive) |  | 22.3 µM (inactive) | 26.7 µM (inactive) | 52.4 µM (inactive) | 20.7 µM (inactive)
COc1ccc(Cn2c(C)nc3c2C(=O)c2ccccc2C3=O)cc1 | 5.4 µM (inactive) |  | 8.61 µM (inactive) | 9.02 µM (inactive) | 13.8 µM (inactive) | 3.2 µM (inactive) | 2.52 µM (inactive) | 2.59 µM (inactive) | 7 µM (inactive) |  |  | 9.48 µM (inactive) | 14.8 µM (inactive) | 11.2 µM (inactive) | 3.74 µM (inactive) | 7.01 µM (inactive) | 13.9 µM (inactive) | 10.4 µM (inactive)
